Source: patent US20260285857A1, “BICYCLIC AND HETEROCYCLIC AMIDE COMPOUNDS” (priority 2024, published 2026)

System: immunoglobulin light chain protein WIL-FL T46L
Experiment: Differential scanning fluorimetry (thermal shift) assay
Format: binding
Settings: Table A; temperature shift [Tm]compound-[Tm]vehicle; recombinant WIL-FL T46L

SMILES	DSF
Cc1cc(N2CC[C@](C)(c3ccccc3)C2)cn2nc(C(=O)N3CCC4(CCN(c5cccc(N)n5)C4)C3)nc12 (stereo partly drawn) [Compound 248]	***** (>2.5° C.=*****)
Cc1cc(N2CC[C@](C)(c3ccccc3)C2)cn2nc(C(=O)N[C@@H]3CN[C@H](C(C)(C)O)C3)nc12 [Compound 162]	***** (>2.5° C.=*****)
Cc1cc(N2CC[C@](C)(c3ccccc3)C2)cn2nc(C(=O)N3C[C@H]4C[C@@H]3C4C(=O)O)nc12 (stereo partly drawn) [Compound 210]	***** (>2.5° C.=*****)
CCC1(c2ccccc2)CN(c2cc(C)c3nc(C(=O)N4CCC5(CCN(c6cccc(C(=O)O)n6)C5)C4)nn3c2)C1 (stereo not drawn) [Compound 394]	***** (>2.5° C.=*****)
CC[C@]1(c2ccccc2)CCN(c2cc(C)c3nc(C45CC(N)(CO4)C5)nn3c2)C1 [Compound 51]	** (>0.5-1 °C =**)
Cc1cc(N2CC[C@](C)(c3ccccc3)C2)cn2nc(C(=O)NC3CCS(=O)(=O)C3)nc12 (stereo partly drawn) [Compound 109]	***** (>2.5° C.=*****)
CCC1(c2ccccc2)CN(c2cc(CO)c3nc(C(=O)NC)nn3c2)C1 [Compound 391]	***** (>2.5° C.=*****)
Cc1cc(N2CC[C@](C)(c3ccccc3)C2)cn2nc(C(=O)NCC34COC(C3)C4)nc12 [Compound 122]	***** (>2.5° C.=*****)
Cc1cc(N2CC[C@](C)(c3ccccc3)C2)cn2nc(C34CC(N5CC6C(C5)C6C(=O)O)(CO3)C4)nc12 (stereo partly drawn) [Compound 63]	***** (>2.5° C.=*****)
CCC(=O)NCC1C2COC1(c1nc3c(C)cc(N4CC[C@](C)(c5ccccc5)C4)cn3n1)C2 (stereo partly drawn) [Compound 81]	***** (>2.5° C.=*****)
Cc1cc(N2CC[C@](C)(c3ccccc3)C2)cn2nc(C(=O)N3CCC4(CCN(C5CCC(C(=O)O)CC5)C4)C3)nc12 (stereo partly drawn) [Compound 377]	***** (>2.5° C.=*****)
Cc1cc(N2CC[C@](C)(c3ccccc3)C2)cn2nc(C(=O)N3CCOC(C(=O)O)C3)nc12 (stereo partly drawn) [Compound 176]	***** (>2.5° C.=*****)
C[C@]1(c2ccccc2)CCN(c2cc(CO)c3nc(C(=O)NC4CC5(CCC5N5CC6C(C5)C6C(=O)O)C4)nn3c2)C1 (stereo partly drawn) [Compound 346]	***** (>2.5° C.=*****)
Cc1cc(N2CC[C@](C)(c3ccccc3)C2)cn2nc(C(=O)NC3C4COCC43)nc12 (stereo partly drawn) [Compound 129]	***** (>2.5° C.=*****)
Cc1cc(N2CC[C@](C)(c3ccccc3)C2)cn2nc(C(=O)N[C@H]3CNCC34CC4)nc12 [Compound 187]	***** (>2.5° C.=*****)
Cc1cc(N2CC[C@](C)(c3ccccc3)C2)cn2nc(C(=O)N3CCn4c(nnc4-c4ccnc(C(=O)O)c4)C3)nc12 [Compound 407]	***** (>2.5° C.=*****)
Cc1cc(N2CC[C@](C)(c3ccccc3)C2)cn2nc(C(=O)NC3CCN(c4ccnc(S(C)(=N)=O)c4)CC3)nc12 (stereo partly drawn) [Compound 283]	***** (>2.5° C.=*****)
CCc1cc(N2CC[C@](C)(c3ccccc3)C2)cn2nc(C(=O)NC)nc12 [Compound 339]	***** (>2.5° C.=*****)
Cc1cc(N2CC[C@](C)(c3ccccc3)C2)cn2nc(C(=O)N3C[C@@]4(C)CN(c5cccc(C(=O)O)n5)C[C@@]4(C)C3)nc12 [Compound 252]	***** (>2.5° C.=*****)
Cc1cc(N2CC[C@](C)(c3ccccc3)C2)cn2nc(C(=O)NC3CC4(C3)CC(N3CC5C(CC(=O)O)C5C3)C4)nc12 (stereo partly drawn) [Compound 356]	***** (>2.5° C.=*****)
Cc1cc(N2CC[C@](C)(c3ccccc3)C2)cn2nc(C(=O)N3CC4(CC(Oc5cccc(C(=O)O)n5)C4)C3)nc12 [Compound 221]	***** (>2.5° C.=*****)
Cc1cc(N2CC[C@](C)(c3ccccc3)C2)cn2nc(C(=O)NC3CC4(C3)CC(N3CC5C(C3)C5C(=O)O)C4)nc12 (stereo partly drawn) [Compound 379]	***** (>2.5° C.=*****)
Cc1cc(N2CC[C@](C)(c3ccccc3)C2)cn2nc(C(=O)NC3CCCN(c4cccc(C(=O)O)n4)C3)nc12 (stereo partly drawn) [Compound 219]	***** (>2.5° C.=*****)
Cc1cc(N2CC[C@](C)(c3ccccc3)C2)cn2nc(C(=O)NC3CC4(C3)CC(N3CCOC(C(=O)O)C3)C4)nc12 (stereo partly drawn) [Compound 358]	***** (>2.5° C.=*****)
Cc1nc(CC2C3COC2(c2nc4c(C)cc(N5CC[C@](C)(c6ccccc6)C5)cn4n2)C3)n[nH]1 (stereo partly drawn) [Compound 9, 8-methyl-6-[(3R)-3-methyl-3-phenyl-pyrrolidin-1-yl]-2-[5-[(5-methyl-1H-1,2,4-triazol-3-yl)methyl]-2-oxabicyclo[2.1.1]hexan-1-yl]-[1,2,4]triazolo[1,5-a]pyridine]	***** (>2.5° C.=*****)
Cc1cc(N2CC[C@](C)(c3ccccc3)C2)cn2nc(C34CC(CO3)C4CN)nc12 (stereo partly drawn) [Compound 80]	***** (>2.5° C.=*****)
CNC(=O)c1nn2cc(N3CC[C@](C)(c4ccccc4)C3)cc(C)c2c1COC [Compound 333]	***** (>2.5° C.=*****)
Cc1n[nH]c(C2C3COC2(c2nc4c(C)cc(N5CC[C@](C)(c6ccccc6)C5)cn4n2)C3)n1 (stereo partly drawn) [Compound 74]	***** (>2.5° C.=*****)
Cc1cc(N2CC[C@](C)(c3ccccc3)C2)cn2nc(C(=O)N[C@H](CO)C(C)C)nc12 [Compound 206]	***** (>2.5° C.=*****)

Same assay, conditions: Table B; temperature shift [Tm]compound-[Tm]vehicle; recombinant WIL-FL T46L

SMILES	DSF
Cc1cc(N2CC[C@](C)(c3ccccc3)C2)cn2nc(C(=O)N3CC4CCN(c5cccc(C(=O)O)n5)C4C3)nc12 (stereo partly drawn) [Compound 645]	***** (>2.5° C.=*****)
Cc1cc(N2CC[C@](C)(c3ccccc3)C2)cn2nc(C(=O)N3CCC4(COCC(C(=O)O)O4)C3)nc12 (stereo partly drawn) [Compound 598]	***** (>2.5° C.=*****)
Cc1cc(N2CC[C@](C)(c3ccccc3)C2)cn2nc(C(=O)N3CC[C@@H]4NC(=O)C[C@@H]43)nc12 [Compound 762]	***** (>2.5° C.=*****)
C[C@]1(c2ccccc2)CCN(c2cc(CO)c3nc(C45CC(CO)(CO4)C5C(N)=O)nn3c2)C1 (stereo partly drawn) [Compound 536]	***** (>2.5° C.=*****)
Cc1cc(N2CC[C@](C)(c3ccccc3)C2)cn2nc(C34CC(NC(=O)c5cccc(C(=O)O)n5)(CO3)C4)nc12 [Compound 466, (R)-6-((1-(8-methyl-6-(3-methyl-3-phenylpyrrolidin-1-yl)-[1,2,4]triazolo[1,5-a]pyridin-2-yl)-2-oxabicyclo[2.1.1]hexan-4-yl)carbamoyl)picolinic acid]	***** (>2.5° C.=*****)
Cc1cc(N2CC[C@](C)(c3ccccc3)C2)cn2nc(C34CC(CO3)C4c3nc(NC(=O)c4cccnc4C(=O)O)n[nH]3)nc12 (stereo partly drawn) [Compound 558]	***** (>2.5° C.=*****)
Cc1cc(N2CC[C@](C)(c3ccccc3)C2)cn2nc(C34CC(CO3)C4N3CC4(CNC4)NC3=O)nc12 (stereo partly drawn) [Compound 515]	***** (>2.5° C.=*****)
Cc1cc(N2CC[C@](C)(c3ccccc3)C2)cn2nc(C(=O)NC34CCC(CO)(CC3)OC4)nc12 [Compound 602]	***** (>2.5° C.=*****)
CCC(=O)NC12CC(C)(C1)OC2c1nc2c(C)cc(N3CC[C@](C)(c4ccccc4)C3)cn2n1 (stereo partly drawn) [Compound 475, N-[1-methyl-3-[8-methyl-6-[(3R)-3-methyl-3-phenyl-pyrrolidin-1-yl]-[1,2,4]triazolo[1,5-a]pyridin-2-yl]-2-oxabicyclo[2.1.1]hexan-4-yl]propanamide]	***** (>2.5° C.=*****)
Cc1cc(N2CC[C@](C)(c3ccccc3)C2)cn2nc(C(=O)N3CCC4(CCC(O)(c5cccc(C(=O)O)n5)C4)C3)nc12 (stereo partly drawn) [Compound 670, 6-[8-hydroxy-2-[8-methyl-6-[(3R)-3-methyl-3-phenyl-pyrrolidin-1-yl]-[1,2,4]triazolo[1,5-a]pyridine-2-carbonyl]-2-azaspiro[4.4]nonan-8-yl]pyridine-2-carboxylic acid]	***** (>2.5° C.=*****)
Cc1nc(C2C3COC2(c2nc4c(C)cc(N5CC[C@](C)(c6ccccc6)C5)cn4n2)C3)n(C)n1 (stereo partly drawn) [Compound 493]	***** (>2.5° C.=*****)
Cc1cc(N2CC[C@](C)(c3cccc(F)c3)C2)cn2nc(C34CC(CO3)C4N3CC4(CC4)NC3=O)nc12 (stereo partly drawn) [Compound 507, 6-(1-(6-((R)-3-(3-fluorophenyl)-3-methylpyrrolidin-1-yl)-8-methyl-[1,2,4]triazolo[1,5-a]pyridin-2-yl)-2-oxabicyclo[2.1.1]hexan-5-yl)-4,6-diazaspiro[2.4]heptan-5-one]	***** (>2.5° C.=*****)
CCS(=O)(=O)NCC12COC(c3nc4c(C)cc(N5CC[C@](C)(c6ccccc6)C5)cn4n3)(C1)C2CO (stereo partly drawn) [Compound 583, N-((5-(hydroxymethyl)-1-(8-methyl-6-((R)-3-methyl-3-phenylpyrrolidin-1-yl)-[1,2,4]triazolo[1,5-a]pyridin-2-yl)-2-oxabicyclo[2.1.1]hexan-4-yl)methyl)ethanesulfonamide]	***** (>2.5° C.=*****)
Cc1cc(N2CC[C@](C)(c3ccccc3)C2)cn2nc(C(=O)N3CC[C@@]4(CCN(C(=O)C56CCC(C(=O)O)(C5)C6)C4)C3)nc12 [Compound 713]	***** (>2.5° C.=*****)
Cc1cc(N2CC[C@](C)(c3ccccc3)C2)cn2nc(C(=O)N3CCC4C3CC(=O)N4c3cccc(C(=O)O)n3)nc12 (stereo partly drawn) [Compound 688]	***** (>2.5° C.=*****)
Cc1n[nH]c(C23CC(NC(=O)c4nc5c(C)cc(N6CC[C@](C)(c7ccccc7)C6)cn5n4)(CO2)C3)n1 [Compound 591, (R)-8-methyl-N-(1-(3-methyl-1H-1,2,4-triazol-5-yl)-2-oxabicyclo[2.1.1]hexan-4-yl)-6-(3-methyl-3-phenylpyrrolidin-1-yl)-[1,2,4]triazolo[1,5-a]pyridine-2-carboxamide]	***** (>2.5° C.=*****)
C[C@]1(c2ccccc2)CCN(c2cc(CO)c3nc(C45CC(CO4)C5c4ncn[nH]4)nn3c2)C1 (stereo partly drawn) [Compound 479]	***** (>2.5° C.=*****)
CC(=O)NC12COC(c3nc4c(C)cc(N5CC[C@](C)(c6ccccc6)C5)cn4n3)(C1)C2c1nc(C)n(C)n1 (stereo partly drawn) [Compound 540]	***** (>2.5° C.=*****)
Cc1ncn(CC2C3COC2(c2nc4c(C)cc(OC[C@H](C)c5ccccc5)cn4n2)C3)n1 (stereo partly drawn) [Compound 487, 8-methyl-2-(5-((3-methyl-1H-1,2,4-triazol-1-yl)methyl)-2-oxabicyclo[2.1.1]hexan-1-yl)-6-((R)-2-phenylpropoxy)-[1,2,4]triazolo[1,5-a]pyridine]	*** (>1-1.5° C.=***)
